In one test the test system is Dentine. Description: Induction of apparent modulus of elasticity in human molar dentine after 1 hr by bending method. It counts as functional, tissue-based.
The subject of another test is Hathewaya histolytica. Description: Inhibition of Clostridium histolyticum collagenase-induced degradation of human molar dentin assessed as reduction in degradation after 24 hrs.

This is an account of results in ChEMBL document CHEMBL4699624, “Targeting Trimeric and Tetrameric Proanthocyanidins of Cinnamomum verum Bark as Bioactives for Dental Therapies” (J Nat Prod, 2020).

Activity calls are given as the source filed them. The rule behind the calls is not given here.

With `Oc1cc(O)c2c(c1)O[C@@]1(c3ccc(O)c(O)c3)Oc3cc(O)c4c(c3[C@@H]2[C@H]1O)O[C@H](c1ccc(O)c(O)c1)[C@H](O)[C@H]4c1c(O)cc2c(c1O)[C@@H]1c3c(cc(O)c4c3O[C@H](c3ccc(O)c(O)c3)[C@@H](O)C4)O[C@](c3ccc(O)c(O)c3)(O2)[C@@H]1O`, the outcome with Dentine was Active. In addition, the inhibition entry with Hathewaya histolytica is “Active”.

With `Oc1cc(O)c2c(c1)O[C@H](c1ccc(O)c(O)c1)[C@H](O)[C@H]2c1c(O)c2c(c3c1O[C@]1(c4ccc(O)c(O)c4)Oc4cc(O)cc(O)c4[C@H]3[C@H]1O)O[C@H](c1ccc(O)c(O)c1)[C@H](O)[C@H]2c1c(O)cc(O)c2c1O[C@H](c1ccc(O)c(O)c1)[C@H](O)C2`, the result in the test with Dentine was Active. Further, in the test with Hathewaya histolytica, the inhibition result was “Active”.

For the molecule `Oc1cc(O)c2c(c1)O[C@@]1(c3ccc(O)c(O)c3)Oc3cc(O)c4c(c3[C@@H]2[C@H]1O)O[C@H](c1ccc(O)c(O)c1)[C@H](O)[C@H]4c1c(O)cc(O)c2c1O[C@H](c1ccc(O)c(O)c1)[C@H](O)C2`, in the test with Dentine, the outcome was Active. Further, the inhibition result in the test on Hathewaya histolytica is “Active”.
